PMC6941952, “A homogeneous bioluminescent immunoassay to probe cellular signaling pathway regulation” (Communications Biology, 2020)
Several values for one entry are separate records, joined by “and”; a condition that tells them apart may be missing. Equal values may be shown once.

Test system: phospho-IκBα (Ser32)
Experiment: NanoBiT cell-based immunoassay, phosphorylated IκBα in MCF-7 cells
Design: species or system human
Settings: for Fold change (TNF-treated /Non-treated): P-IkB; for P-IkB Average / Average: background subtracted
Protocol: Prior to NanoBiT Cell-Based Immunoassay, 50,000 cells were seeded in 160 µl of complete growth media per well of a 96-well plate and incubated overnight. The cells were checked under microscope and it was determined that 50,000 cells per well in 96-well plate is under 90% confluency for all cells tested. If necessary, the cell culture media were replaced with serum-free media after the cells were stably adherent on the plate and incubated overnight. To treat cells with activators or inhibitors, medium was changed to 30 µl of medium containing inhibitors. If activation of a specific pathway is needed, the cells were stimulated with 10 µl of medium containing activators. To lyse the cells, 10 µl of lysis buffer containing 0.1% digitonin diluted in 1X immunoassay buffer with protease and phosphatase inhibitors was added and the plates were mixed vigorously for 20 min. Then, 50 µl of an antibody mix containing two primary antibodies against the target protein and NanoBiT detecting antibodies (0.3 µl each per well), diluted in 1X immunoassay buffer was added to the lysates. The plates were incubated at 23 °C for 90 min, followed by the addition of 25 µl of Nano-Glo® reagent consisting of Nano-Glo® Luciferase Assay Substrate mixed with 1X immunoassay buffer. Luminescence was measured using a plate-reading luminometer.
In all, 50,000 MCF-7 cells were seeded in 160 µl complete growth medium per well of a 96-well plate and incubated overnight. Half of the cells were treated with 50 ng per ml TNFα and half with vehicle. Cells were lysed as described above and a mixture of NanoBiT secondary antibodies with primary antibodies at the matrix concentrations described in Fig. 2a were added. After 90 min incubation, the Nano-Glo® reagent was added to the reactions as described above and luminescence was measured using a plate-reading luminometer.
Single dose or dose response inhibitor treatments were performed prior to activation of the pathways as follows. For IκBα, the cells were treated in 30 µl medium with IKK16 or MG132 for 60 min before the addition of 10 µl of DMEM containing appropriate concentration of TNFα. To measure phosphorylation of AKT or STAT3, the corresponding NanoBiT immunoassays were developed with MCF-7 or A431 cells, respectively, according the same scheme used to develop the IκBα assay using the primary antibodies for AKT and STAT3 described in the reagents section. For the AKT assay, MCF-7 cells were incubated overnight in phenol-red free DMEM medium (Gibco #21063-029) without serum. Treatment with LY294002 was performed in 30 µl medium and cells were incubated for 60 min before the addition of 1 µM Insulin. To measure STAT3 phosphorylation, A431 cells were incubated overnight in DMEM medium without serum. […] After addition of the stimulators, the cells were incubated for additional times as follows. IκBα phosphorylation and degradation analyses required both time courses and single time points as described in figures. […] The NanoBiT immunoassay protocol was followed as described above.
All 96-well assay plates were read using a GloMax® 96 Microplate Luminometer from Promega. The instrument was set to 0.5 s integration time. In order to obtain net change of signal, the reagent background values (signal from the well containing all reagent except primary antibodies) were subtracted from the sample values. To plot and analyze the data, Microsoft Excel and GraphPad Prism® Software were used. IC50 values were determined by using a nonlinear regression fit to a sigmoidal dose response (variable slope).

[1] = Figure 2b, Ab incubation 5 min, listed as TNF
[2] = Figure 2b, Ab incubation 10 min, listed as TNF
[3] = Figure 2b, Ab incubation 60 min, listed as TNF
[4] = Figure 2b, Ab incubation 90 min, listed as TNF
[5] = Figure 2b, Ab incubation 120 min, listed as TNF
[6] = Figure 2b, Ab incubation 10 min
[7] = Figure 2b, Ab incubation 30 min
[8] = Figure 2b, Ab incubation 60 min
[9] = Figure 2b, Ab incubation 90 min
[10] = Figure 2b, Ab incubation 120 min
[11] = Figure 2c, Cell # 3500, listed as TNF
[12] = Figure 2c, Cell # 7000, listed as TNF
[13] = Figure 2c, Cell # 14000, listed as TNF
[14] = Figure 2c, Cell # 21000, listed as TNF
[15] = Figure 2c, Cell # 28000, listed as TNF
[16] = Figure 2c, Cell # 35000, listed as TNF
[17] = Figure 2c, Cell # 42000, listed as TNF
[18] = Figure 2c, Cell # 49000, listed as TNF
[19] = Figure 2c, Cell # 56000, listed as TNF
[20] = Figure 2c, Cell # 63000, listed as TNF
[21] = Figure 3a and 3b, listed as TNF
[22] = No MG132, TNF 2 min, listed as TNF
[23] = No MG132, TNF 4 min, listed as TNF
[24] = No MG132, TNF 10 min, listed as TNF
[25] = No MG132, TNF 12 min, listed as TNF
[26] = No MG132, TNF 15 min, listed as TNF
[27] = No MG132, TNF 30 min, listed as TNF
[28] = plate #1, IkB Ab #1 75 ng/ml, P-IkB Ab #1 75 ng/ml, TNF

TNFα
P-IkB Raw data [1]: 13050
P-IkB Subtract reagent background [1]: 1653 and 2223 and 1733
P-IkB Raw data [2]: 15430
P-IkB Subtract reagent background [2]: 4075 and 4145 and 2725
P-IkB Subtract reagent background (Figure 2b, Ab incubation 30 min, listed as TNF): 11622 and 12702 and 12152
P-IkB Raw data [3]: 35930
P-IkB Subtract reagent background [3]: 23000 and 23900 and 26790
P-IkB Raw data [4]: 44160
P-IkB Subtract reagent background [4]: 32005 and 32085 and 32105
P-IkB Raw data [5]: 26480
P-IkB Subtract reagent background [5]: 19503 and 18993 and 21543
Fold change (TNF-treated /Non-treated) (Figure 2b, Ab incubation 5 min): -51
Fold change (TNF-treated /Non-treated) [6]: 25
Fold change (TNF-treated /Non-treated) [7]: 10
Fold change (TNF-treated /Non-treated) [8]: 14
Fold change (TNF-treated /Non-treated) [9]: 13
Fold change (TNF-treated /Non-treated) [10]: 12
P-IkB Average (Figure 2b, Ab incubation 5 min): 1870
P-IkB Average [6]: 3648
P-IkB Average [7]: 12158
P-IkB Average [8]: 24563
P-IkB Average [9]: 32065
P-IkB Average [10]: 20013
Raw data [11]: 19860 and 20790
Subtract background [11]: 6010 and 6150
Raw data [12]: 22450 and 23090
Subtract background [12]: 8600 and 8450
Raw data [13]: 26500 and 26620
Subtract background [13]: 12650 and 11980
Raw data [14]: 26350 and 27260
Subtract background [14]: 12500 and 12620
Raw data [15]: 29180 and 29230
Subtract background [15]: 15330 and 14590
Raw data [16]: 32490 and 30000
Subtract background [16]: 18640 and 15360
Raw data [17]: 35680 and 35010
Subtract background [17]: 21830 and 20370
Raw data [18]: 36150 and 38410
Subtract background [18]: 22300 and 23770
Raw data [19]: 38800 and 38570
Subtract background [19]: 24950 and 23930
Raw data [20]: 40840 and 40330
Subtract background [20]: 26990 and 25690
Average (Figure 2c, Cell # 3500): 6080
Average (Figure 2c, Cell # 7000): 8525
Average (Figure 2c, Cell # 14000): 12315
Average (Figure 2c, Cell # 21000): 12560
Average (Figure 2c, Cell # 28000): 14960
Average (Figure 2c, Cell # 35000): 17000
Average (Figure 2c, Cell # 42000): 21100
Average (Figure 2c, Cell # 49000): 23035
Average (Figure 2c, Cell # 56000): 24440
Average (Figure 2c, Cell # 63000): 26340
P-IkB Average (Figure 3a and 3b): 18603
P-IkB Raw data [21]: 40970 and 39480 and 37340
P-IkB Subtract reagent background [21]: 20310 and 18820 and 16680
P-IkB Average (No MG132, TNF 2 min): 1340
P-IkB Raw data [22]: 17500 and 17960 and 17760 and 18420
P-IkB Subtract reagent background [22]: 930 and 1390 and 1190 and 1850
P-IkB Average (No MG132, TNF 4 min): 2908
P-IkB Raw data [23]: 18550 and 18960 and 19930 and 20470
P-IkB Subtract reagent background [23]: 1980 and 2390 and 3360 and 3900
P-IkB Average (No MG132, TNF 6 min): 9185
P-IkB Raw data (No MG132, TNF 6 min, listed as TNF): 21700 and 24830 and 27800 and 28690
P-IkB Average (No MG132, TNF 8 min): 17540
P-IkB Raw data (No MG132, TNF 8 min, listed as TNF): 27040 and 33390 and 37550 and 38460
P-IkB Average (No MG132, TNF 10 min): 21585
P-IkB Raw data [24]: 32290 and 37160 and 40510 and 42660
P-IkB Subtract reagent background [24]: 15720 and 20590 and 23940 and 26090
P-IkB Average (No MG132, TNF 12 min): 19345
P-IkB Raw data [25]: 33820 and 35920 and 37120 and 36800
P-IkB Subtract reagent background [25]: 17250 and 19350 and 20550 and 20230
P-IkB Average (No MG132, TNF 15 min): 13560
P-IkB Raw data [26]: 29860 and 30140 and 30400 and 30120
P-IkB Subtract reagent background [26]: 13290 and 13570 and 13830 and 13550
P-IkB Average (No MG132, TNF 30 min): 3855
P-IkB Raw data [27]: 20170 and 19970 and 20370 and 21190
P-IkB Subtract reagent background [27]: 3600 and 3400 and 3800 and 4620
Raw data [28]: 32920
Subtract reagent background [28]: 14010
